According to patent publication US20230203126A1, “A COMPOSITION COMPRISING S-ARRESTIN PEPTIDES” (WORG PHARMACEUTICALS (HANGZHOU) CO., LTD., priority 2019, published 2023):
No end group written: not given here.

Columns and labels:
[1] = test system: S-Ag-induced cell activation (IFNy production of LN cells and splenocytes); test: Ex vivo tolerization experiment (DR2tg mice); assay type: in vivo
Protocol: FIG. 4: 9K1K alone induces tolerance towards S-Ag protein in DR2tg mice. Mice were injected subcutaneously in the flank with 0,1 µg/ml, 1 µg/ml and 10 µg/ml 9K1K on days -15, -13 and -11, followed by 3 injections of 100 µg/ml on days -8, -6 and -4 (escalating dose regime). On day 0, mice were immunized subcutaneously at the base of the tail with antigen/CFA. Mice were sacrificed 10 days after immunization to measure activation of LN cells and splenocytes upon S-Ag restimulation. IFNy concentration was measured in the culture supernatant as an indication of cell activation. Data represent mean ± SEM of the concentration of IFNy for the PBS-treated mice (black lines) and 9K1K-treated mice (grey lines). Two-way ANOVA was used to measure overall treatment effects on T cell activation. Dunnett’s multiple comparisons test was used and significant differences are indicated in the graphs (** p<0.01; **** p<0.0001). The % inhibition of IFNy production as compared to the control group is indicated in the graphs. (A) Tolerization against S-Ag in LN. IFNy production expressed as IFNy concentration (pg/ml). (B) Tolerization against S-Ag in spleen. IFNy production expressed as IFN-Y concentration (pg/ml). LN, lymph nodes. Data representative of 3 independent experiments.
FIG. 8: Treatment with peptide cocktail ATX975 reduces S-Ag-induced immune cell activation in DR2tg mice more efficiently than treatment with 9K1K alone. Mice were injected subcutaneously in the flank with 0.015 nmol, 0.15 nmol and 1.5 nmol of peptide on days -15, -13 and -11 respectively, followed by 3 injections of 15 nmol peptide on days -8, -6 and -4 (dose escalation schedule). For treatment with the cocktail (ATX975) containing 3 peptides, these doses were given per peptide (reaching a total top dose of 45 nmol peptide). On day 0, mice were immunized subcutaneously at the base of the tail with antigen/CFA. Mice were sacrificed 10 days after immunization to measure activation of splenocytes upon S-Ag restimulation. […] IFN-y production expressed as IFN-y concentration (pg/ml). […]

[2] = test system: MHC II molecules on dendritic cells (CD11c+ cells); test: In vivo MHC class II loading assay (DR2tg mice); set-up: species or system HLA-DR2-transgenic mice; conditions: 100 µg peptide s.c., spleen 2 h post injection, 72 h co-culture, vs PBS-injected control
Protocol: FIG. 1: Peptide 9K1K is correctly loaded on MHC class II in vivo. Response of peptide-specific CD4+ T cells towards peptide loaded in vivo on dendritic cells is shown. HLA-DR2-transgenic mice were injected subcutaneously with 100 µg of 9K1K peptide. 2 h post injection, spleens were dissected and CD11 c+ cells (dendritic cells) were isolated. These CD11c+ cells were co-cultured with peptide-specific CD4+ cells for 72 h at 37° C. IFNy was measured in the supernatant of these cultures to evaluate the response to peptide by the CD4+ T cells. (* p<0.05 Mann-Whitney U-test)
When 100 µg of peptide 9K1K was injected in DR2tg mice or when peptide 17JK or 15N3K was injected in DR3tg mice, these peptides could be detected on dendritic cells (CD11c+ cells) in the spleens of these mice 2 h post injection. Activation (IFNY production) of peptide-specific CD4+ T cells by the isolated CD11 c+ cells was used as a read-out. […]
DR3tg or DR2tg mice were injected with 100 µg of peptide in 100 µl PBS subcutaneously (s.c.) in the flank. […] After 72 hours, supernatant of these co-cultures was collected and CD4+ T cell activation was analysed by IFNy ELISA (R&D Systems, Abingdon, UK). In a parallel experiment, CD4+ T cell responses towards peptide added in vitro were assessed to make sure the T cells recognize the peptides presented by the CD11 c+ cells.

[3] = target: HLA-DRA1*0101, DRB1*1501 (DR2) (Homo sapiens, UniProt P01903+P01911); test: DR2
Protocol: Table printed on a drawing sheet, Figure 9
The patent's description of the figure: FIG. 9: Diverse patterns of in vitro peptide-MHC II binding for peptides 9K1, 17JK and 15N3K. Binding of peptides 9K1, 17JK and 15N3K to recombinant HLA-DRA1*0101, DRB1*0101 (DR1), DRB1*1501 (DR2), DRB1*0301 (DR3), DRB1*0401 (DR4), DRB1*1101 (DR11), DRB1*0405 (DR4*05) and DRB1*0901 (DR9) was assessed in vitro. IC50 values (µM) are presented and colour-coded per HLA-DR molecule. Low values (green) indicate strong binding, high values (red) indicate low(er) binding.
FIG. 9 depicts IC50 (µM) values of peptides 9K1K, 17JK and 15N3K binding to the indicated HLA-DR molecules and competing with a known competitor peptide. Values should be compared only within each HLA-DR molecule. Low IC50 values (green) indicate the strongest binder per HLA-DR molecule. Highest values per HLA-DR molecule (red) are indicative of the lowest binder for that HLA-DR molecule. Intermediate values are indicated in orange. […]
First copying reader's note: The sheet prints no unit; per the patent description the values are IC50 (µM) for peptide binding to the named HLA-DR molecules, with cell shading coding relative binding strength per HLA-DR molecule.
Where the first naming reader finds the target: description_of_the_figure: recombinant HLA-DRA1*0101, DRB1*0101 (DR1), DRB1*1501 (DR2)

Substance: KKKAFVEQVANVVLKKK-NH2 [9K1K, KKKAFVEQVANVVLKKK]
- reduction of S-Ag-induced cell activation (IFNy) in spleens ([1]; dose escalation to 15 nmol per peptide s.c., cocktail vs single peptide, vs control mice (FIG. 8)): 51%
- reduction of S-Ag-induced cell activation (IFNy) in lymph nodes ([1]; single peptide escalating dose s.c., vs PBS, 10 days after immunization (FIG. 4A)): 77%
- reduction of S-Ag-induced cell activation (IFNy) in spleen ([1]; single peptide escalating dose s.c., vs PBS, 10 days after immunization (FIG. 4B)): 70%
- CD4+ T cell activation (IFNy) by CD11c+ cells isolated from spleen of injected mice [2]: significant CD4+ T cell activation
- IC50 [3]: 520 nM
